{"source": "patent EP0517126A1", "about": "“Use of diacetyl-splenopentin in chemotherapy and radiation therapy” (WOGEPHARM GmbH, priority 1991, dated 1992)", "type_in_all_cases": "in vivo, BALB/c-Mäuse", "key": {"Knochenmarkstammzellen [1]": {"test_system": "Knochenmarkstammzellen", "assay": "Agar colony test (CFU test) of bone marrow stem cells after dexamethasone treatment, followed by DA-SP5", "conditions": "after Dexamethason 150 mg/kg i.p. days +1 to +5, DA-SP5 10 µg i.p. three times weekly, normal value 121 ± 23", "from_the_text": "(§1) Es wurde gefunden, daß als Folge einer Therapie mit Zytostatika bzw. durch eine Bestrahlungstherapie sich im Blut der entsprechend behandelten Patienten die Zahl immunologischer Abwehrzellen vermindert. Dies resultiert, weil durch die o. g. Therapie auch die Stammzellen des Knochenmarks (aus diesen entstehen die immunologischen Abwehrzellen) zytotoxisch geschädigt werden. Die Substanz DA-SP5 erhöht die Nachbildung von immunologischen Abwehrzellen aus Stammzellen des Knochenmarks (W. DIEZEL et al. (1989): DD-PS 268160 Al). Es hat sich gezeigt, daß DA-SP5 direkt die Proliferation unreifer Stammzellen des Knochenmarks beschleunigen kann bzw. die Wirkung des Kolonien-stimulierrenden Faktors GM-CSF synergistisch erhöht. Überraschenderweise wurde jetzt festgestellt, daß als Folge dieser Wirkung die zytotoxische Schädigung von Knochenmarkstammzellen (und damit die verminderte Entstehung immunologischer Abwehrzellen) durch Chemotherapeutika bzw. infolge Bestrahlung der Zellen, kompensiert werden kann. Die erfindungsgemäße Wirkung wurde dadurch festgestellt, indem BALB/c-Mäuse hochdosiert mit zytotoxischen (Zellproliferations-hemmenden) Therapeutika systemisch behandelt wurden. Anschließend erfolgte eine Therapie mit DA-SP5 bzw. es wurde lediglich 0,9%ige NaCl-Lösung (Kontrallgruppe) appliziert. Während dieser Therapie wurde untersucht, ob die DE-SP5-behandelten Tiere zeitlich eher befähigt wurden \"Knochenmarkstammzell-Kolonien\" entsprechend der Norm zu bilden. Eine diesbezüglich schnellere Bildung korreliert mit einer schnelleren Entstehung entsprechender immunologischer Abwehrzellen im Blut. In einer weiteren Versuchsserie wurden BALB/c-Mäuse subletal bestrahlt, und anschließend ebenfalls mit oder ohne DA-SP5 behandelt. Auch bei diesen Tieren wurde untersucht, ob sie zeitlich eher befähigt waren, \"Knochenmarkzell-Kolonien\" entsprechend der Norm zu bilden. Das erfindungsgemäß verwendete Mittel wurde in Mengen von 0,05mg bis 1,0 mg pro kg Körpergewicht verabreicht. […]"}, "Knochenmarkstammzellen [2]": {"test_system": "Knochenmarkstammzellen", "assay": "Agar colony test (CFU test) of bone marrow stem cells after methotrexate treatment, followed by DA-SP5", "conditions": "after Methotrexat 175 mg/kg days +1 to +5, DA-SP5 10 µg i.p. three times weekly, normal value 121 ± 23", "from_the_text": "as §1"}, "Knochenmarkstammzellen [3]": {"test_system": "Knochenmarkstammzellen", "assay": "Agar colony test (CFU test) of bone marrow stem cells after sublethal X-ray irradiation, followed by DA-SP5", "conditions": "after single X-ray irradiation, DA-SP5 10 µg i.p. three times weekly, normal value 121 ± 23", "from_the_text": "as §1"}}, "note": "No end group written: not given here."}
{"substance": "Ac-RK(Ac)EVY [DA-SP5, (N^α-acetyl-L-arginyl)-(N^ε-acetyl-L-lysyl)-L-glutamyl-L-valyl-L-tyrosin]", "values": [{"measurement": "Kolonien pro Femur (x̄ ± s)", "setting": "Knochenmarkstammzellen [1]; Tag Nr. 10 of DA-SP5 therapy", "result": "10 ± 8"}, {"measurement": "Kolonien pro Femur (x̄ ± s)", "setting": "Knochenmarkstammzellen [1]; Tag Nr. 20 of DA-SP5 therapy", "result": "55 ± 21"}, {"measurement": "Kolonien pro Femur (x̄ ± s)", "setting": "Knochenmarkstammzellen [1]; Tag Nr. 40 of DA-SP5 therapy", "result": "126 ± 18"}, {"measurement": "Kolonien pro Femur (x̄ ± s)", "setting": "Knochenmarkstammzellen [2]; Tag Nr. 10 of DA-SP5 therapy", "result": "9 ± 6"}, {"measurement": "Kolonien pro Femur (x̄ ± s)", "setting": "Knochenmarkstammzellen [2]; Tag Nr. 20 of DA-SP5 therapy", "result": "53 ± 24"}, {"measurement": "Kolonien pro Femur (x̄ ± s)", "setting": "Knochenmarkstammzellen [2]; Tag Nr. 40 of DA-SP5 therapy", "result": "110 ± 20"}, {"measurement": "Kolonien pro Femur (x̄ ± s)", "setting": "Knochenmarkstammzellen [3]; Tag Nr.10 of DA-SP5 therapy", "result": "8 ± 6"}, {"measurement": "Kolonien pro Femur (x̄ ± s)", "setting": "Knochenmarkstammzellen [3]; Tag Nr.20 of DA-SP5 therapy", "result": "116 ± 10"}, {"measurement": "Kolonien pro Femur (x̄ ± s)", "setting": "Knochenmarkstammzellen [3]; Tag Nr.40 of DA-SP5 therapy", "result": "126 ± 12"}]}
